Reference: patent US20080020076A1, “Methods and Therapies for Potentiating a Therapeutic Action of an Alpha-2 Adrenergic Receptor Agonist and Inhibiting and/or Reversing Tolerance to Alpha-2 Adrenergic Receptor Agonists” (priority 2006, published 2008)

What was measured:
[1] = tested on: alpha-2 adrenergic receptor; experiment: tail flick test (thermal antinociception), intrathecal drugs; type: in vivo, rat
Method: Experiments were conducted using adult male Sprague-Dawley rats (Charles River, St. Constant, QC, Canada) weighing between 200-250 grams. Animals were housed individually in standard laboratory cages, maintained on a 12-hour light/dark cycle, and provided with food and water ad libitum. The surgical placement of chronic indwelling intrathecal catheters (polyethylene PE 10 tubing, 7.5 cm) into the spinal subarachnoid space was made under 4% halothane anesthesia, using the method of Yaksh and Rudy Physiol. Behav. 1976 7:1032-1036). Specifically, the anesthetized animal was placed prone in a stereotaxic frame, a small incision made at the back of the neck, and the atlanto-occipital membrane overlying the cisterna magna was exposed and punctured with a blunt needle. The catheter was inserted through the cisternal opening and slowly advanced caudally to position its tip at the lumbar enlargement. The rostral end of the catheter was exteriorized at the top of the head and the wound closed with sutures. […]
The tail flick test (D'amour & Smith, J. Pharmacol. Exp. Ther. 1941 72:74-79) was used to measure the response to a thermal nociceptive stimulus. Radiant heat was applied to the distal third of the animal's tail and the response latency for tail withdrawal from the source was recorded using an analgesia meter (Owen et al., J. Pharmacol. Methods 1981 6:33-37)). […]
A single injection of clonidine was administered intrathecally and the response measured in the tail flick and paw pressure test. […]
(§1) For the in vivo studies, tail flick and paw pressure values were converted to a maximum percentage effect (M.P.E.): M.P.E.=100×[post-drug response−baseline response]/[maximum response−baseline response]. Data represented in the figures are expressed as mean (±S.E.M.). The ED50 values were determined using a non-linear regression analysis (Prism 2, GraphPad Software Inc., San Diego, Calif., USA). Statistical significance (p<0.05, 0.01. or 0.001) was determined using a one-way analysis of variance followed by a Student Newman-Keuls post hoc test for multiple comparisons between groups.

[2] = tested on: alpha-2 adrenergic receptor; experiment: paw pressure test (mechanical antinociception), intrathecal drugs; type: in vivo, rat
Method: (§2) Experiments were conducted using adult male Sprague-Dawley rats (Charles River, St. Constant, QC, Canada) weighing between 200-250 grams. Animals were housed individually in standard laboratory cages, maintained on a 12-hour light/dark cycle, and provided with food and water ad libitum. The surgical placement of chronic indwelling intrathecal catheters (polyethylene PE 10 tubing, 7.5 cm) into the spinal subarachnoid space was made under 4% halothane anesthesia, using the method of Yaksh and Rudy Physiol. Behav. 1976 7:1032-1036). Specifically, the anesthetized animal was placed prone in a stereotaxic frame, a small incision made at the back of the neck, and the atlanto-occipital membrane overlying the cisterna magna was exposed and punctured with a blunt needle. The catheter was inserted through the cisternal opening and slowly advanced caudally to position its tip at the lumbar enlargement. The rostral end of the catheter was exteriorized at the top of the head and the wound closed with sutures. Animals were allowed 3-4 days recovery from surgery and only those free from neurological deficits, such as the hindlimb or forelimb paralysis or gross motor dysfunction, were included in the study. All drugs were injected intrathecally as solutions dissolved in physiological saline (0.9%) through the exteriorized portion of the catheter at a volume of 10 μl, followed by a 10 μl volume of 0.9% saline to flush the catheter.
(§3) The paw pressure test (Loomis et al., Pharm. Biochem. 1987 26:131-139) was used to measure the response to a mechanical nociceptive stimulus. Pressure was applied to the dorsal surface of the hind paw using an inverted air-filled syringe connected to a gauge and the value at which the animal withdrew its paw was recorded. A maximum cutoff pressure of 300 mmHg was used to avoid tissue damage.
A single injection of clonidine was administered intrathecally and the response measured in the tail flick and paw pressure test. […] Following drug administration, nociceptive testing was performed every 10 minutes for the first 60 minutes and every 30 minutes for the following 120-150 minute period. Results for atipemazole are depicted in FIG. 1A (tail flick) and FIG. 1B (paw pressure).
as §1

[3] = tested on: alpha-2 adrenergic receptor; experiment: acute tolerance to spinal L-norepinephrine analgesia, tail flick test; type: in vivo, rat
Method: (§4) The effect of normal saline (20 μl) was also evaluated by injection at 90 minute intervals. Pain responses were evaluated in the tail flick and paw pressure test at 30 minute intervals.
as §2
The tail flick test (D'amour & Smith, J. Pharmacol. Exp. Ther. 1941 72:74-79) was used to measure the response to a thermal nociceptive stimulus. Radiant heat was applied to the distal third of the animal's tail and the response latency for tail withdrawal from the source was recorded using an analgesia meter (Owen et al., J. Pharmacol. Methods 1981 6:33-37)). The stimulus intensity was adjusted to yield baseline response latencies between 2-3 seconds. To minimize tail damage, a cutoff of 10 seconds was used as an indicator of maximum antinociception.
as §1

[4] = tested on: alpha-2 adrenergic receptor; experiment: acute tolerance to spinal L-norepinephrine analgesia, paw pressure test; type: in vivo, rat
Method: as §4, §2, §3, §1

[5] = tested on: alpha-2 adrenergic receptor; experiment: tail flick test (thermal antinociception), intrathecal drugs; type: in vivo, rat; remark: listed apart in the source
alpha-2 adrenoceptors = settings: versus yohimbine; cited from earlier work
[6] = atipemazole 1, 5, 10 μg co-administered with clonidine 200 nmoles intrathecal
[7] = atipemazole 0.08 ng with L-norepinephrine 30 μg intrathecal
[8] = atipemazole 0.0008, 0.008 and 0.08 ng with clonidine 50 nmoles intrathecal
[9] = 24 hours after treatment, atipemazole 0.008 or 0.8 ng combined with norepinephrine
[10] = atipemazole 0.8 ng with L-norepinephrine 30 μg, three intrathecal injections at 90 minute intervals
[11] = atipemazole 0.008 or 0.8 ng combined with norepinephrine, x3, 24 hours after
[12] = combination of norepinephrine 30 μg and atipemazole 0.8 ng, x3 at 90 minute intervals
[13] = clonidine 50 nmoles (13.3 μg) intrathecal, alone
[14] = clonidine 50 nmoles (13.3 μg) intrathecal, alone, listed as Clonidine
[15] = clonidine 200 nmoles intrathecal, alone
[16] = single spinal dose of norepinephrine (30 μg), alone
[17] = 24 hours after three successive injections of norepinephrine alone
[18] = norepinephrine alone, 30 μg x3 at 90 minute intervals
[19] = yohimbine 0.0002, 0.005 and 0.02 ng with clonidine 50 nmoles (13.3 μg) intrathecal

CCC1(c2cnc[nH]2)Cc2ccccc2C1 [atipemazole]
effect on peak clonidine analgesia ([1]; atipemazole 10 μg (highest dose) with clonidine 200 nmoles intrathecal): almost abolishing the response | effect on peak clonidine analgesia [1, 6]: dose-related decrease | dose antagonizing the analgesic action of clonidine ([1]; intrathecal, co-administered with clonidine 200 nmoles): greater than 1 microgram | effect on norepinephrine analgesia [2, 7]: extended norepinephrine analgesia | effect on clonidine analgesic response [2, 8]: significantly augmented | effect on clonidine response [2, 6]: decreased clonidine response in the paw pressure test but only at the highest dose | rightward shift of the L-norepinephrine cumulative dose-response curve [3, 9]: prevented | effect on decline of norepinephrine analgesia on repeated injection [3, 10]: inhibited the decline of norepinephrine analgesia | effect on increase of L-norepinephrine ED50 [3, 11]: completely prevented the increase in ED50 values | analgesic response at 240 minutes, after the third dose [3, 12]: sustained the maximal analgesic level | rightward shift of the L-norepinephrine cumulative dose-response curve [4, 9]: prevented | effect on decline of norepinephrine analgesia on repeated injection [4, 10]: inhibited the decline of norepinephrine analgesia | effect on increase of L-norepinephrine ED50 [4, 11]: completely prevented the increase in ED50 values | analgesic response at 240 minutes, after the third dose [4, 12]: sustained the maximal analgesic level | effect on norepinephrine analgesia [5, 7]: extended norepinephrine analgesia | effect on clonidine analgesic response [5, 8]: significantly augmented | potency as a displacer of clonidine relative to yohimbine (alpha-2 adrenoceptors): about 100 times

Clc1cccc(Cl)c1N=C1NCCN1 [clonidine]
analgesic response [2, 13]: submaximal analgesic response | analgesic response [2, 14]: submaximal analgesia | analgesic response [2, 15]: a lesser effect | analgesic response [5, 13]: submaximal analgesic response | analgesic response [5, 14]: submaximal analgesia | analgesic response [5, 15]: maximal analgesic response

NC[C@H](O)c1ccc(O)c(O)c1 [norepinephrine, L-norepinephrine]
time at which analgesia terminated [2, 16]: 180 min | time of peak analgesia [2, 16]: 30 min | L-norepinephrine ED50 versus saline control group [3, 17]: increased significantly | analgesic response at 240 minutes, after the third dose [3, 18]: significantly declined towards pre-drug baseline value | L-norepinephrine ED50 versus saline control group [4, 17]: increased significantly | analgesic response at 240 minutes, after the third dose [4, 18]: significantly declined towards pre-drug baseline value | time at which analgesia terminated [5, 16]: 180 min | time of peak analgesia [5, 16]: 30 min

COC(=O)[C@@H]1[C@H]2C[C@H]3c4[nH]c5ccccc5c4CCN3C[C@@H]2CC[C@@H]1O [yohimbine]
effect on clonidine analgesic response [2, 19]: significantly augmented | effect on clonidine analgesic response [5, 19]: significantly augmented
